Source: patent US5922723A, “Pharmaceutical compositions for prevention and treatment of central nervous system disorders” (priority 1996, dated 1999)
pEC50, pKi: −log10 of the molar value. Counter-ions that a name gives are not always drawn.

Legend:
CNS nicotinic receptors = test: Inhibition of L-[3H]nicotine binding to rat brain membrane preparations; design: species or system rat (Sprague-Dawley); settings: for pKi: 10 nM L-[3H]nicotine, 2 hr at 4° C., rat brain membranes, calculated from IC50 (Cheng et al.); for binding to CNS nicotinic receptors (in words): summary of Table I
Experimental: Rats (Sprague-Dawley) were maintained on a 12 hour light/dark cycle and were allowed free access to water and food supplied by Wayne Lab Blox, Madison, Wis. Animals used in the present studies weighed 200 to 250 g. Brain membrane preparations were obtained from brain tissue of either males or females.
Rats were killed by decapitation following anesthesia with 70% CO2. Brains were removed and placed on an ice-cold platform. […] The resulting homogenate was centrifuged at 18,000× g for 20 min. and the resulting pellet was resuspended in 20 volumes of water. After 60 min. incubation at 4° C., a new pellet was collected by centrifugation at 18,000× g for 20 min. After resuspension in 10 volumes of buffer, a new final pellet was again collected by centrifugation at 18,000× g for 20 min. Prior to each centrifugation step, the suspension was incubated at 37° C. for 5 min. to promote hydrolysis of endogenous acetylcholine. The final pellet was overlayered with buffer and stored at -70° C. On the day of the assay, that pellet was thawed, resuspended in buffer and centrifuged at 18,000× g for 20 min. The pellet obtained was resuspended in buffer to a final concentration of approximately 5 mg protein/ml.
The binding of L-[^3 H]nicotine was measured using a 2 hr. incubation at 4° C. Incubations contained about 500 μg of protein and were conducted in 12 mm×75 mm polypropylene test tubes in a final incubation volume of 250 μl. The incubation buffer was Krebs-Ringers HEPES containing 200 mM TRIS buffer, pH 7.5. The binding reaction was terminated by filtration of the protein containing bound ligand onto glass fiber filters (Micro Filtration Systems) that had been soaked in buffer containing 0.5 percent polyethyleneimine. Filtration vacuum was -50 to -100 torr. Each filter was washed five times with 3 ml of ice-cold buffer. The filtration apparatus was cooled to 2° C. before use and was kept cold through the filtration process. Nonspecific binding was determined by inclusion of 10 uM nonradioactive nicotine in the incubations.
The inhibition of L-[^3 H]nicotine binding by test compounds was determined by including one of eight different concentrations of the test compound in the incubation.

[1] = test system: synaptosomes from the striatal area of rat brain (dopamine release); test: Dopamine release from synaptosomes of the striatal area of rat brain; assay type: biochemical, rat (Sprague-Dawley); settings: for pEC50: [3H]-dopamine; for dopamine release (in words): summary of Table I
Experimental: Striata from 4 rats were homogenized in 2 ml of 0.32 M sucrose buffered with 5 mM HEPES (pH 7.5), using a glass-Teflon tissue grinder. The homogenate was diluted to 5 ml with additional homogenization solution and centrifuged at 1,000× g for 10 min. This procedure was repeated on the new pellet and the resulting supernatant was centrifuged at 12,000× g for 20 min. A 3 layer discontinuous Percoll gradient consisting of 16 percent, 10 percent and 7.5 percent Percoll in HEPES-buffered sucrose was made with the final pellet dispersed in the top layer. […] The new pellet was collected and re-suspended in perfusion buffer. The synaptosome suspension was incubated for 10 min. at 37° C. [^3 H]-Dopamine (Amersham, 40-60 Ci/mmol) was added to the suspension to give a final concentration of 0.1 uM, and the suspension was incubated for another 5 min. […] A continuous perfusion system was used to monitor release following exposure to each ligand. Synaptosomes were loaded onto glass fiber filters (Gelman type A/E). Perfusion buffer was dripped onto the filters (0.2-0.3 ml/min.) and pulled through the filters with a peristaltic pump. Synaptosomes were washed with perfusion buffer for a minimum of 20 min. before addition of the ligand. After the addition of 0.2 ml of a solution containing various concentrations of ligand, the perfusate was collected into scintillation vials at 1 min. intervals and the dopamine released was quantified by scintillation counting. Peaks of radioactivity released above background were summed and the average basal release during that time was subtracted from the total.

[2] = target: T1, muscle-like nicotinic receptors (human clonal line TE671/RD) (Homo sapiens, UniProt P02708+P07510+Q07001); assay type: cell-based; settings: for effects at muscle sites (in words): summary of Table I; for Muscle Effect: te671/rd cells
T1 construct: these cells express muscle-like nicotinic receptors; endogenous in cells; host or cells: TE671/RD (human embryonal rhabdomyosarcoma clonal line), intact cells
Experimental: Discussion concerning the heterogeneity of nicotinic receptors subtypes is set forth in Lukas et al., Internatl. […] Acetylcholine nicotinic receptors expressed in rat ganglia share a very high degree of homology with their human counterparts. See, Fornasari et al., Neurosci. […] Intact cells on dishes were used for functional studies.
Specific ion efflux was determined as the difference in isotope efflux between total and non-specific efflux samples.

[3] = target: T2, ganglionic-type neuronal nicotinic receptors (rat pheochromocytoma clonal line PC12) (Rattus norvegicus, UniProt P04757+P12392); assay type: cell-based; settings: for Ganglion Effect: pc12 cells; for effects at ganglionic sites (in words): summary of Table I
T2 construct: tumor of the rat adrenal medulla expressing ganglionic-typeneuronal nicotinic receptors; endogenous in cells; host or cells: PC12 (rat pheochromocytoma clonal line), intact cells

[4] = rat striatal synaptosomes, % of release by equal concentration of (S)-(-)-nicotine

T1 sequence (P02708 21-457): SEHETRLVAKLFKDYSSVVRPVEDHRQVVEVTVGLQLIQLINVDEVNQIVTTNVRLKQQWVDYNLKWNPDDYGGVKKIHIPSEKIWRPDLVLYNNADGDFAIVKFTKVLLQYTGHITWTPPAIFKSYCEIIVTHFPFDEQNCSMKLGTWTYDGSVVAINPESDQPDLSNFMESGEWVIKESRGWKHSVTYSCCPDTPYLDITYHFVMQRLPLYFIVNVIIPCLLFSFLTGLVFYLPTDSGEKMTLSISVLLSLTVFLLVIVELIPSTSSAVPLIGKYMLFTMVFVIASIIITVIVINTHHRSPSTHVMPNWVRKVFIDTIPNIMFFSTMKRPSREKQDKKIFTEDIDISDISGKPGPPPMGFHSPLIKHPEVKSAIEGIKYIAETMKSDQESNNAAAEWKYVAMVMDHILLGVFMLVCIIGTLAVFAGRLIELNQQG
T1 sequence (Q07001 22-517): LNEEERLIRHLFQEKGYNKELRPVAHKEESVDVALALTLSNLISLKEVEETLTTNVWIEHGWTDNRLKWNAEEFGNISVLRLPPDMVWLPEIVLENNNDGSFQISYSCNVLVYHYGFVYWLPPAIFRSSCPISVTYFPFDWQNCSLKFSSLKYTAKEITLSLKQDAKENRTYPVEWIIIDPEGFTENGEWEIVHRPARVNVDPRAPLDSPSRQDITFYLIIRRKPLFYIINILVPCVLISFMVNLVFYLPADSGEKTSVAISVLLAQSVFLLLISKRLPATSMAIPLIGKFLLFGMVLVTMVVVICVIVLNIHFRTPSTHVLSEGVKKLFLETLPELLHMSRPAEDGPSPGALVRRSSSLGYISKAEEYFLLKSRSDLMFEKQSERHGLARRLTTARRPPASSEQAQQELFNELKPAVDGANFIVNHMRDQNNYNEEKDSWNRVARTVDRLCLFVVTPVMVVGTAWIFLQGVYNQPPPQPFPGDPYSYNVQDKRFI
T1 sequence (P07510 23-517): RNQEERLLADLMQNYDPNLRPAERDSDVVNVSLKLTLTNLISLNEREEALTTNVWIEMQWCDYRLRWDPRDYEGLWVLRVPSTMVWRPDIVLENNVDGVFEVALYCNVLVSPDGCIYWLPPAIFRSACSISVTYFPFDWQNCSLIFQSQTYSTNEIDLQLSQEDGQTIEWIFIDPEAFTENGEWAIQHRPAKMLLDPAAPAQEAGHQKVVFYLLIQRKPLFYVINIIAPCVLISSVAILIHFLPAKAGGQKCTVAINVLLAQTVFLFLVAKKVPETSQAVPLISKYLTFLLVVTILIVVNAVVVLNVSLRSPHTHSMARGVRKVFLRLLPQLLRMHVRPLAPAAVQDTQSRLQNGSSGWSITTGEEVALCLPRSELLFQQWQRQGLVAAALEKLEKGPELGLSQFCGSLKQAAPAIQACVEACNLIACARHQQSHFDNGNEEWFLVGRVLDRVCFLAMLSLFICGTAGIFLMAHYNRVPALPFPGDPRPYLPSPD
T2 sequence (P04757 26-499): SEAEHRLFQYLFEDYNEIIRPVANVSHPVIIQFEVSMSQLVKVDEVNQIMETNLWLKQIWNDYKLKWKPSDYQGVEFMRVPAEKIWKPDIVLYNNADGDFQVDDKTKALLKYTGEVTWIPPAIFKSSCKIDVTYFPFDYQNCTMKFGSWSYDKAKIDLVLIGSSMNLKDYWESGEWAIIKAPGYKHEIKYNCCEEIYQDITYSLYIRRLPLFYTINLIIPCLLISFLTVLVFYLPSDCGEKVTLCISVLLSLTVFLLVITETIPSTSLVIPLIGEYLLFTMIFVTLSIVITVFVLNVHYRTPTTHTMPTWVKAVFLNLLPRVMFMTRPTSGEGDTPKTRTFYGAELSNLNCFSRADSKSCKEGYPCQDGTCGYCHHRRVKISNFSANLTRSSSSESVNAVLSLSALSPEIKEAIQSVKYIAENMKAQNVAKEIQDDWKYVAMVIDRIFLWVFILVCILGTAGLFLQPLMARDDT
T2 sequence (P12392 21-495): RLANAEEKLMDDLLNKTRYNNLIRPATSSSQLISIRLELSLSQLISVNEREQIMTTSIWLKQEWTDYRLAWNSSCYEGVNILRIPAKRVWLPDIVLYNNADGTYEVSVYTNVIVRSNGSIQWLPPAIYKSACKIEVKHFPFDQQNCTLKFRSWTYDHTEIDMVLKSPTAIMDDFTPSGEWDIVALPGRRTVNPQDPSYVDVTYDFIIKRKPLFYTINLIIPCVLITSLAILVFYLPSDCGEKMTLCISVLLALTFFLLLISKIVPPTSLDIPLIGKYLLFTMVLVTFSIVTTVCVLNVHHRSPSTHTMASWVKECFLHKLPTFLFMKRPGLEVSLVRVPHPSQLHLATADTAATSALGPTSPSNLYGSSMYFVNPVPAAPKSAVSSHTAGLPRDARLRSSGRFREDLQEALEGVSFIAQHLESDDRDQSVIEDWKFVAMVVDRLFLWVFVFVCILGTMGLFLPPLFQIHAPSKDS

Structure (SMILES): CN1C2CCC(CC2)C1c1cccnc1 (racemic) [Sample No. 6, (+/-)-2-methyl-3-(3-pyridyl)-2-azabiyclo[2.2.2]octane fumarate]
- pKi (CNS nicotinic receptors): 7.24
- binding to CNS nicotinic receptors (in words) (CNS nicotinic receptors): good high affinity binding to CNS nicotinic receptors
- pEC50 ([1]; rat striatal synaptosomes): 5.70
- Dopamine Release Emax [1, 4]: 10 % nicotine
- effects at muscle sites (in words) [2]: desirably low effects at muscle sites
- Muscle Effect [2]: 30
- Ganglion Effect [3]: 21
- effects at ganglionic sites (in words) [3]: desirably low effects at muscle sites and ganglionic sites

Structure (SMILES): O=C(O)/C=C/C(=O)O.c1cncc(C2NC3CCC2CC3)c1 (racemic) [compound 5, (+/-)-3-(3-pyridyl)-2-azabicyclo[2.2.2]octane fumarate]
- pKi (CNS nicotinic receptors): 7.46
- binding to CNS nicotinic receptors (in words) (CNS nicotinic receptors): good high affinity binding to CNS nicotinic receptors
- pEC50 ([1]; rat striatal synaptosomes): 5.59
- Dopamine Release Emax [1, 4]: 4 % nicotine
- effects at muscle sites (in words) [2]: desirably low effects at muscle sites
- Muscle Effect [2]: 9
- Ganglion Effect [3]: 3
- effects at ganglionic sites (in words) [3]: desirably low effects at muscle sites and ganglionic sites

Structure (SMILES): C1=C[C@H]2CC[C@@H]1[C@@H](c1cccnc1)N2 (relative stereo) [Sample No. 1, (+/-)-endo 3-(3-pyridyl)-2-azabicyclo[2.2.2]oct-5-ene fumarate]
- pKi (CNS nicotinic receptors): 6.32
- pEC50 ([1]; rat striatal synaptosomes): 6.26
- Dopamine Release Emax [1, 4]: 14 % nicotine
- Muscle Effect [2]: 69
- Ganglion Effect [3]: 12

Structure (SMILES): C1=C[C@H]2CC[C@@H]1[C@H](c1cccnc1)N2 (relative stereo) [Sample No. 2, (+/-)-exo-3-(3-pyridyl)-2-azabicyclo[2.2.2]oct-5-ene fumarate]
- pKi (CNS nicotinic receptors): 8.70
- binding to CNS nicotinic receptors (in words) (CNS nicotinic receptors): good high affinity binding to CNS nicotinic receptors
- pEC50 ([1]; rat striatal synaptosomes): 6.52
- Dopamine Release Emax [1, 4]: 41 % nicotine
- Muscle Effect [2]: 103
- Ganglion Effect [3]: 65

Structure (SMILES): CN1[C@H](c2cccnc2)[C@@H]2C=C[C@H]1CC2 (relative stereo) [Sample No. 3, (+/-)-endo-2-methyl-3-(3-pyridyl)-2-azabicyclo[2.2.2]oct-5-ene fumarate]
- pKi (CNS nicotinic receptors): 5.20
- pEC50 ([1]; rat striatal synaptosomes): 4.89
- Dopamine Release Emax [1, 4]: 9 % nicotine
- Muscle Effect [2]: 0
- Ganglion Effect [3]: 0

Structure (SMILES): CN1[C@H]2C=C[C@H](CC2)[C@@H]1c1cccnc1 (relative stereo) [Sample No. 4, (+/-)-Exo-2-methyl-3-(3-pyridyl)-2-azabicyclo[2.2.2]oct-5-ene fumarate]
- pKi (CNS nicotinic receptors): 7.48
- binding to CNS nicotinic receptors (in words) (CNS nicotinic receptors): good high affinity binding to CNS nicotinic receptors
- pEC50 ([1]; rat striatal synaptosomes): 4.46
- Dopamine Release Emax [1, 4]: 17 % nicotine
- effects at muscle sites (in words) [2]: desirably low effects at muscle sites
- Muscle Effect [2]: 8
- Ganglion Effect [3]: 8
- effects at ganglionic sites (in words) [3]: desirably low effects at muscle sites and ganglionic sites

Structure (SMILES): CCN1[C@H](c2cccnc2)[C@@H]2C=C[C@H]1C2 (relative stereo) [Sample No. 7, (+/-)-endo-2-ethyl-3-(3-pyridyl)-2-azabicyclo[2.2.1]hept-5-ene]
- pKi (CNS nicotinic receptors): 5.11
- pEC50 ([1]; rat striatal synaptosomes): 4.89
- Dopamine Release Emax [1, 4]: 22 % nicotine
- Muscle Effect [2]: 18
- Ganglion Effect [3]: 2

Structure (SMILES): COc1ccc(CN2[C@H](c3cccnc3)[C@@H]3C=C[C@H]2C3)cc1 (relative stereo) [Sample No. 8, (+/-)-endo-2-(p-methoxybenzyl)-3-(3-pyridyl)-2-azabicyclo[2.2.1]hept-5-ene]
- pKi (CNS nicotinic receptors): 4.09
- Dopamine Release Emax ([1]; Emax at 100 uM, % of release by (S)-(-)-nicotine): 15 % nicotine
- pEC50 ([1]; rat striatal synaptosomes): < 4.00
- dopamine release (in words) [1]: induce dopamine release
- effects at muscle sites (in words) [2]: desirably low effects at muscle sites
- effects at ganglionic sites (in words) [3]: desirably low effects at muscle sites and ganglionic sites

Structure (SMILES): CN1[C@H](c2cccnc2)[C@@H]2C=C[C@H]1C2 (relative stereo) [Sample No. 10, (+/-)-endo-2-methyl-3-(3-pyridyl)-2-azabicyclo[2.2.1]hept-5-ene]
- pKi (CNS nicotinic receptors): 8.52
- binding to CNS nicotinic receptors (in words) (CNS nicotinic receptors): good high affinity binding to CNS nicotinic receptors
- pEC50 ([1]; rat striatal synaptosomes): 7.07
- Dopamine Release Emax [1, 4]: 44 % nicotine
- effects at muscle sites (in words) [2]: desirably low effects at muscle sites
- Muscle Effect [2]: 25
- Ganglion Effect [3]: 18
- effects at ganglionic sites (in words) [3]: desirably low effects at muscle sites and ganglionic sites

Structure (SMILES): CN1[C@H](c2cncc(Br)c2)[C@@H]2C=C[C@H]1C2 (relative stereo) [Sample No. 12, (+/-)-endo-2-methyl-3-[3-(5-bromopyridyl)]-2-azabicyclo[2.2.1]hept-5-ene]
- pKi (CNS nicotinic receptors): 5.68
- pEC50 ([1]; rat striatal synaptosomes): 5.78
- Dopamine Release Emax [1, 4]: 12 % nicotine
- Muscle Effect [2]: 2
- Ganglion Effect [3]: 4

Structure (SMILES): C1=C[C@H]2C[C@@H]1[C@@H](c1cccnc1)N2Cc1ccccc1 (relative stereo) [compound 9, (+/-)-endo-2-benzyl-3-(3-pyridyl)-2-azabicyclo[2.2.1]hept-5-ene]
- pKi (CNS nicotinic receptors): 3.85
- pEC50 ([1]; rat striatal synaptosomes): 4.96
- Dopamine Release Emax [1, 4]: 30 % nicotine
- dopamine release (in words) [1]: induce dopamine release
- effects at muscle sites (in words) [2]: desirably low effects at muscle sites
- Muscle Effect [2]: 7
- Ganglion Effect [3]: 11
- effects at ganglionic sites (in words) [3]: desirably low effects at muscle sites and ganglionic sites

Structure (SMILES): CN1[C@H]2C=C[C@H](C2)[C@@H]1c1cccnc1 (relative stereo) [compound 11, (+/-)-exo-2-methyl-3-(3-pyridyl)-2-azabicyclo[2.2.1]hept-5-ene]
- pKi (CNS nicotinic receptors): 8.05
- binding to CNS nicotinic receptors (in words) (CNS nicotinic receptors): good high affinity binding to CNS nicotinic receptors
- pEC50 ([1]; rat striatal synaptosomes): 7.05
- Dopamine Release Emax [1, 4]: 58 % nicotine
- Muscle Effect [2]: 7
- Ganglion Effect [3]: 55

Structure (SMILES): CN1CCC[C@H]1c1cccnc1 [Sample No. C-1, (S)-(-)-nicotine, reference compound]
- Dopamine Release Emax [1, 4]: 100 % nicotine
